Assay results: patent US20130090494A1, “TETRAKIS[BIS(DIHYDROXYPHOSPHORYL)METHYL]CALIX[4]ARENE OR ITS SODIUM SALT THEREOF AS FIBRIN POLYMERIZATION INHIBITORS” (priority 2010, published 2013)
“Also recorded” adds a separate entry of the source. Where a name gives a salt, the structure may show the parent alone.

Legend:
[1] = target: T1, desAABB fibrin monomer polymerization (Homo sapiens, UniProt P02671+P02675+P02679); experiment: Turbidity analysis of desAABB fibrin monomer polymerization; assay type: biochemical; conditions: for final (maximum) turbidity of fibrin clot (Δh) / lag-time (τ) / maximum rate of fibrin polymerization (Vmax): desAABB fibrin polymerization medium, 0.5 μM, FIG. 2
T1 construct: DesAABB fibrin monomer was prepared in 0.02 M acetic acid was prepared during reaction fibrinogen+thrombin; The fibrinogen was prepared by sodium sulfate precipitation from human plasma; from tissue; host or cells: human blood plasma; fibrinogen converted with thrombin
T1 sequence (P02671 36-866 limits assumed): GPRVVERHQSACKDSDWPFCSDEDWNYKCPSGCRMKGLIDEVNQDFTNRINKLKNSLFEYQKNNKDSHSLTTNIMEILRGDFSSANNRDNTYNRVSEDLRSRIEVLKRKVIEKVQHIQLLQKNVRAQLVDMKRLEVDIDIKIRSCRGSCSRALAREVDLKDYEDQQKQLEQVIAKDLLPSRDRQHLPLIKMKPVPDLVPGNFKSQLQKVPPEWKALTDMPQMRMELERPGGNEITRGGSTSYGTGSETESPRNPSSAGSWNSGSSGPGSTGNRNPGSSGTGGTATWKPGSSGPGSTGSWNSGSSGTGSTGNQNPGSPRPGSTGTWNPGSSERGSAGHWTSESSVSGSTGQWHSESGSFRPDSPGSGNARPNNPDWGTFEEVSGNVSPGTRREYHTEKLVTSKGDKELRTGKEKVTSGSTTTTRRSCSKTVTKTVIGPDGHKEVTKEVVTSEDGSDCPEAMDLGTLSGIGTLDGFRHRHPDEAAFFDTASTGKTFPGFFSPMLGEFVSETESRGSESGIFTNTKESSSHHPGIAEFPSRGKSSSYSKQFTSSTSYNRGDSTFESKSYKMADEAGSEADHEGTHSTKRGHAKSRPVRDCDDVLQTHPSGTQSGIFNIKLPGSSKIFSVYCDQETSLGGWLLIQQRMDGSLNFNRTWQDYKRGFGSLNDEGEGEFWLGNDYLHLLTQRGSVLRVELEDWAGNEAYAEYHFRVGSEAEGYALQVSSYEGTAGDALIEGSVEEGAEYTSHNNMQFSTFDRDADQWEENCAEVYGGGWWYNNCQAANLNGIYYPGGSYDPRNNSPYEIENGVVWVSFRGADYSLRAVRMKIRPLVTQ
T1 sequence (P02675 45-491 limits assumed): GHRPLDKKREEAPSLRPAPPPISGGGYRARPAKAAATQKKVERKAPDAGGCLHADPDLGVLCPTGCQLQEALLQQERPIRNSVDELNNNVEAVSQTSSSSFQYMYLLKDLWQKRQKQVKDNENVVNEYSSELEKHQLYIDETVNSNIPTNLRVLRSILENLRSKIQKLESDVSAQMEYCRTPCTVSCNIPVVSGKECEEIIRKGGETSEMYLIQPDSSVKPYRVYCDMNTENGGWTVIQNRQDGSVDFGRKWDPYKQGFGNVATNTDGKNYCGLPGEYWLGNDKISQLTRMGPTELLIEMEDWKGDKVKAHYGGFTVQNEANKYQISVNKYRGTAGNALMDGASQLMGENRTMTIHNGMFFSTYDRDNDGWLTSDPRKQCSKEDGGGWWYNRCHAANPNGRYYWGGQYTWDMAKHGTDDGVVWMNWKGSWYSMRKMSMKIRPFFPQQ
T1 sequence (P02679 27-453): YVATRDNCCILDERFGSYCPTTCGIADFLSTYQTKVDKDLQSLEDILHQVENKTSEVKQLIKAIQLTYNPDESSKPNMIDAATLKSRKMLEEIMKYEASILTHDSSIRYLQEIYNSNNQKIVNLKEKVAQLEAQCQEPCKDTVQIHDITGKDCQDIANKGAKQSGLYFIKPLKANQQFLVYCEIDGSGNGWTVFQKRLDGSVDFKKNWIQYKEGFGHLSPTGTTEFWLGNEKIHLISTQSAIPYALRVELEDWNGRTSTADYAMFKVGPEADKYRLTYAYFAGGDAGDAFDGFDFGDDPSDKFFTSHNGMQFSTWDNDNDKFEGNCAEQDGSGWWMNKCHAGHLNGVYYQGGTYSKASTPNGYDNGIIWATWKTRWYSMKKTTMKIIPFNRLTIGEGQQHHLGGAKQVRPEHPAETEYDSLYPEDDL
Experimental: (§1) The fibrin polymerization by the action of thrombin on fibrinogen consists of two reactions: 1) thrombin-catalyzed conversion of fibrinogen to fibrin and 2) polymerization of the fibrin monomer to form three-dimensional network, which is the framework of thrombus.
(§2) The turbidity analysis of desAABB fibrin polymerization and of fibrin polymerization in the fibrinogen+thrombin reaction in the present and the absent of declared calixarenes C-192 and C-145
(§3) The fibrinogen was prepared by sodium sulfate precipitation from human plasma. DesAABB fibrin monomer was prepared in 0.02 M acetic acid was prepared during reaction fibrinogen+thrombin [10]. Polymerization of fibrin desAA and desAABB was studied in the polymerization medium containing at a low concentration thrombin at pH 5.3 [7]. In the experience of the system fibrinogen+thrombin in polymerization medium to add declared calixarene C-192 at a concentration of 0.5 mM.
The declared calixarene C-192 and C-145 was added on the desAABB fibrin polymerization medium at a concentration of 0.5 μM.

[2] = target: T2, fibrin polymerization (Homo sapiens, UniProt P02671+P02675+P02679); experiment: Turbidity analysis of fibrin polymerization (system not specified); assay type: biochemical; conditions: applicant's own experiments
T2 sequence (P02671 20-644 isoform P02671-2 limits assumed): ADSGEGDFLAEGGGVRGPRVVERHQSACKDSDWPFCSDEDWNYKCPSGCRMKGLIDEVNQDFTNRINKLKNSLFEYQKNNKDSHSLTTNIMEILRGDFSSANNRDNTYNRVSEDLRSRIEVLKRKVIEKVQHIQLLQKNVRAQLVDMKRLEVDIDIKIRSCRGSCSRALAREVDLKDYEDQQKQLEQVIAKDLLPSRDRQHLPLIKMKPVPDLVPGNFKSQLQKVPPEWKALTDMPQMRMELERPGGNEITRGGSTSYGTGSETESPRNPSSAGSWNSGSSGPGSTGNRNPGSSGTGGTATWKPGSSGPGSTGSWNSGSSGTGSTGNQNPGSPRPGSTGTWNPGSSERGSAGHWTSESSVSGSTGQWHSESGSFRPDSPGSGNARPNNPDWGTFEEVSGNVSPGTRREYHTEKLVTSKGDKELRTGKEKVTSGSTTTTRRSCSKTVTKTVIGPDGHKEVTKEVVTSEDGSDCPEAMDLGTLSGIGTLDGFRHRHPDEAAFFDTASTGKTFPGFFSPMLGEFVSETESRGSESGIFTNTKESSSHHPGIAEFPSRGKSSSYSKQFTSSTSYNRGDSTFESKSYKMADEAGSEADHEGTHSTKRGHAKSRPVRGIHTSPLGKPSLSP
T2 sequence (P02675 45-491 limits assumed): T1 sequence (P02675 45-491 limits assumed)
T2 sequence (P02679 27-437 isoform P02679-2 limits assumed): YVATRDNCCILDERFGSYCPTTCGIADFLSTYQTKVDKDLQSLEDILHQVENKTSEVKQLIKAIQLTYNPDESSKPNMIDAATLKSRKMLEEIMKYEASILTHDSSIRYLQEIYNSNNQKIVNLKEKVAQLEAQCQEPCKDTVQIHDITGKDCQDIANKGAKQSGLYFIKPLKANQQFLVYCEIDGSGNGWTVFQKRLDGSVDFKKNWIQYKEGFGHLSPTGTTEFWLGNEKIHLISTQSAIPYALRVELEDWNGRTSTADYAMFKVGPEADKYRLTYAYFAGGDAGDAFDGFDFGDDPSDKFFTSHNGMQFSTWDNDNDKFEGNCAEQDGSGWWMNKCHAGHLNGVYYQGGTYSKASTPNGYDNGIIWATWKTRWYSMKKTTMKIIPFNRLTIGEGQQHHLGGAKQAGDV
Text: Furthermore, because of electro neutrality of the declared calixarene-145 molecule, it may be more suitable for injection to a living organism as an inhibitor of fibrin polymerization and the process of blood clotting, as well.

[3] = target: T3, fibrin polymerization in the thrombin-fibrinogen reaction (Homo sapiens, UniProt P02671+P02675+P02679); experiment: Turbidity analysis of fibrin polymerization in the thrombin-fibrinogen reaction; assay type: biochemical
T3 construct: The fibrinogen was prepared by sodium sulfate precipitation from human plasma; from tissue; host or cells: human blood plasma
T3 sequence (P02671 20-644 isoform P02671-2 limits assumed): T2 sequence (P02671 20-644 isoform P02671-2 limits assumed)
T3 sequence (P02675 45-491 limits assumed): T1 sequence (P02675 45-491 limits assumed)
T3 sequence (P02679 27-437 isoform P02679-2 limits assumed): T2 sequence (P02679 27-437 isoform P02679-2 limits assumed)
Experimental: as §1, §2, §3

[4] = target: T4, fibrin protofibril formation (Homo sapiens, UniProt P02671+P02675+P02679); experiment: Transmission electron microscopy of fibrin formed in the thrombin-fibrinogen reaction; assay type: biochemical; conditions: 50000 magnification, FIG. 4
T4 construct: The fibrinogen was prepared by sodium sulfate precipitation from human plasma; from tissue; host or cells: human blood plasma
T4 sequence (P02671 20-644 isoform P02671-2 limits assumed): T2 sequence (P02671 20-644 isoform P02671-2 limits assumed)
T4 sequence (P02675 45-491 limits assumed): T1 sequence (P02675 45-491 limits assumed)
T4 sequence (P02679 27-437 isoform P02679-2 limits assumed): T2 sequence (P02679 27-437 isoform P02679-2 limits assumed)
Text: The study of desAABB fibrin polymerization in the thrombin-fibrinogen reaction by transmission electron microscopy in the present and the absent of declared calixarenes C-192 and C-145
The analysis of the electron micrographs of the fibrin formed in the fibrinogen+thrombin reaction at different time intervals after the polymerization process beginning in the absence of calixarene C-192 (FIG. 4, A and B) and in the presence of calixarene C-192 (FIG. 4, C, D).
The samples of polymerizing fibrin produced in the thrombin-fibrinogen reaction in the absence or the presence of calixarene C-192 were taken out of the reaction medium at various times, placed on a carbon-coated grid for 2 min and then stained with 1% (w/v) uranyl acetate for 1 min. Transmission electron microscopy was performed with an H-600 electron microscope (Hitachi, Tokyo, Japan). Electron micrographs were obtained at −50 000 magnification.

[5] = system: human blood plasma coagulation (outer pathway); experiment: Prothrombin time (PT) of human blood plasma
Experimental: (§4) The measuring of prothrombin time (PT) and activated partial thromboplastin time (APTT) for coagulation of human plasma in the presence of calixarene C-192.
(§5) The effects of calixarene C-192 on the coagulation of human blood plasma were studied using a coagulometer (CT 2410 ‘Solar’, Belarus).
Using coagulometer measured the prothrombin ratio, which is calculated using the formula: […]
where: PR—prothrombin ratio; PTe—prothrombin time in the investigating blood plasma; PTc—prothrombin time in the control blood plasma.
The prothrombin time were calculated using the method. The dissolved calixarene C-192 at concentration of 50 μM was added to cuvette in the experience. The prothrombin ratio calculating by formula (I) equals 1.6.

[6] = system: human blood plasma coagulation (internal pathway); experiment: Activated partial thromboplastin time (APTT) of human blood plasma
Text: as §4, §5
The activated partial thromboplastin time calculated by the method. In the APTT-test comparing the formation of the fibrin clot in control samples: pure blood plasma specimens and blood plasma, in which the solute of calixarene C-192 at concentration of 50 μM. The prothrombin ratio Calculated by formula (1) equals 5.4.

[7] = Acute toxicity in healthy adult mice; conditions: mouse, in vivo, oral; healthy adult mice, perorally
[8] = system: mice; experiment: Acute toxicity in healthy adult mice; conditions: mouse, in vivo
[9] = fibrinogen+thrombin system, C-192 at 0.5 mM, FIG. 1
[10] = normal human blood plasma, FIG. 3

O=P(O)(O)C(c1cc2c(O)c(c1)Cc1cc(C(P(=O)(O)O)P(=O)(O)O)cc(c1O)Cc1cc(C(P(=O)(O)O)P(=O)(O)O)cc(c1O)Cc1cc(C(P(=O)(O)O)P(=O)(O)O)cc(c1O)C2)P(=O)(O)O [calixarene C-145, octasodium salt of 5,11,17,23-tetrakis [bis](dihydroxyphosphoryl)methyl calix[4]arene]
final (maximum) turbidity of fibrin clot (Δh) ([1]; listed as C-145): significantly decreased | lag-time (τ) ([1]; listed as C-145): increases; also recorded: increased significantly | maximum rate of fibrin polymerization (Vmax) ([1]; listed as C-145): significantly decreased | IC50 [2]: 2500 nM

O=P(O)(O)C(c1cc2c(O)c(c1)Cc1cc(C(P(=O)(O)O)P(=O)(O)O)cc(c1O)Cc1cc(C(P(=O)(O)O)P(=O)(O)O)cc(c1O)Cc1cc(C(P(=O)(O)O)P(=O)(O)O)cc(c1O)C2)P(=O)(O)O [calixarene C-192, 5,11,17,23-tetrakis[bis(dihydroxyphosphoryl)methyl]calix[4]arene]
final turbidity of fibrin clot (Δh) [3, 9]: decreased; also recorded: reduced | lag-time (τ) [3, 9]: increases; also recorded: significantly increased | maximum rate of fibrin polymerization (Vmax) [3, 9]: significantly decreased; also recorded: greatly reduced | IC50 ([3]; turbidity analysis, thrombin-fibrinogen reaction): 500 nM | final (maximum) turbidity of fibrin clot (Δh) ([1]; listed as C-192): decreased | lag-time (τ) ([1]; listed as C-192): increased significantly | maximum rate of fibrin polymerization (Vmax) ([1]; listed as C-192): decreased | IC50 ([1]; fibrin monomer polymerization): 1000 nM | effect on fibrin polymerization stage seen by electron microscopy [4]: inhibits the first stage of fibrin polymerization protofibril formation; also recorded: inhibits the first stage of fibrin polymerization protofibril building | concentration that doubles the prothrombin time (PT) [5, 10]: 7.0·10^−5 M | prothrombin ratio (PR=PTe/PTc) ([5]; prothrombin time, human plasma, 50 μM): 1.6 | prothrombin ratio calculated by formula (1) in the APTT-test ([6]; APTT-test, human plasma, 50 μM): 5.4 | concentration that doubles the APTT [6, 10]: 1.7·10^−5 M | LD50 [7]: 780 mg/kg | toxicity class [8]: median toxic compound
